Read-outs that look alike come from different tables or passages of the source.
Experiments:
[1] = tested on: IL-6 mRNA expression; assay: Inhibition of IL-6 mRNA expression in LPS-treated HaCaT cells (real-time PCR); format: cell-based, Human; conditions: for mRNA Expression (%) (10 μM) IL-6: HaCaT cells, 10 μM compound pretreatment then LPS, LPS alone set to 100%; for IC50: Homo sapiens, HaCaT
Method: (§1) Human keratinocytes HaCaT or alpha mouse liver 12 (AML-12) cells were obtained from Cell Lines Service GmbH (Eppelheim, Germany). The cells were cultured in Dulbecco's modified Eagle's medium (DMEM, HyClone) supplemented with 10% fetal bovine serum (HyClone) (HaCaT cells) and 1% penicillin/streptomycin (HyClone) and maintained at 37° C. in a humidified atmosphere containing 5% CO2. AML-12 cells were pretreated with compounds at a concentration of 10 μM 1 hour before LPS treatment and then treated with LPS (100 ng/mL) for 24 hours.
(§2) Total RNA was isolated from tissues using TRIzol reagent (Invitrogen), and reverse transcription (RT) and real-time PCR analysis were performed using the ABI PRISM 7700 system (PE Biosystems). Data were normalized to the amount of GAPDH mRNA.
(§3) 13 novel synthetic compounds (Compounds 5a to 5m) and 3 synthetic intermediates (Compounds 4d, 4e, and 41) were screened by measuring the mRNA expression levels of IL-6 and IL-1β. Human keratinocyte HaCaT cell lines were used to evaluate the mRNA expression inhibition effect. […] Each compound was administered at a concentration of 10 μM.
Dose-response studies were performed for the above five compounds at different concentrations to obtain IC50 values (μM) (FIG. 1 and Table 3).

[2] = tested on: IL-1β mRNA expression; assay: Inhibition of IL-1β mRNA expression in LPS-treated HaCaT cells (real-time PCR); format: cell-based, Human; conditions: 10 μM compound pretreatment then LPS, LPS alone set to 100%
Method: as §1, §2, §3

[3] = tested on: pY-STAT3; assay: Western blotting of pY-STAT3 in LPS-treated AML-12 cells; format: cell-based, mouse; conditions: 10 μM compound, FIG. 2
Method: as §1
(§4) Protein levels in cells and mouse tissues were determined by immunoblot analysis. […] After quantifying the protein concentrations in the lysates (supernatant) using the Bradford assay (Bio-Rad, CA, USA), the lysates were mixed with a sample buffer (62.5 mM Tris-HCl pH 6.8, 10% glycerol, 2% sodium dodecyl sulfate, 0.0125% bromophenol blue, 2.5% β-mercaptoethanol) and heated at 95° C. for 5 minutes. […] Immune complexes were detected with horseradish peroxidase (HRP)-conjugated secondary antibodies (Bio-Rad, Hercules, CA, USA) and enhanced with chemiluminescence reagents (Ab Frontier, Daejeon, Korea) using IQ800 (GE Healthcare, Sweden). The abundance of the target protein was quantified by densitometric analysis of the immunoblot. […]

[4] = tested on: p-IκBα; assay: Western blotting of p-IκBα in LPS-treated AML-12 cells; format: cell-based, mouse; conditions: 10 μM compound, FIG. 2
Method: as §1, §4

[5] = tested on: p-NF-κB p65; assay: Western blotting of p-NF-κB p65 in LPS-treated AML-12 cells; format: cell-based, mouse; conditions: 10 μM compound, FIG. 2
Method: as §1, §4

[6] = tested on: IL-1β mRNA; assay: IL-1β mRNA level in liver tissue of LPS-injected mice; format: in vivo, mice (C57BL/6J); conditions: 10 mg/kg in olive oil 1 hour before LPS (1 mg/kg i.p., 6 h)
Method: (§5) 10-week-old male C57BL/6J mice (Jackson Laboratory, Bar Harbor, ME, USA) were used in the experiment. All animal experiments were performed in accordance with the protocol approved by the Institutional Animal Care and Use Committee of Ewha Womans University (EWHA IACUC 19-001). The mice were housed in a temperature-controlled room (20 to 22° C. with a 12 h light:12 h dark cycle). The compounds prepared according to Examples 1 to 10 were diluted with olive oil (vehicle, Sigma) to a volume of 200 μL (10 mg/kg) and administered to mice (male C57BL/6J, […]) 1 hour before LPS administration. LPS (1 mg/kg, 6 h) was resuspended in saline and injected intraperitoneally at a dose of 1 mg/kg of body weight. At the end of the experiment, the mice were sacrificed (tribromoethanol, 250 mg/kg, i.p.) and the liver and blood were collected for further analysis.
as §2
(§6) 2 compounds (Compounds 4d and 5f) were selected for in vivo assay. […] In order to evaluate the anti-inflammatory activity in mice, the mRNA expressions of IL-1β, IL-6, and TNF-α were measured, and the results are shown in FIG. 3.

[7] = tested on: IL-6 mRNA; assay: IL-6 mRNA level in liver tissue of LPS-injected mice; format: in vivo, mice (C57BL/6J); conditions: 10 mg/kg in olive oil 1 hour before LPS (1 mg/kg i.p., 6 h)
Method: as §5, §2, §6

[8] = tested on: TNF-α mRNA; assay: TNF-α mRNA level in liver tissue of LPS-injected mice; format: in vivo, mice (C57BL/6J); conditions: 10 mg/kg in olive oil 1 hour before LPS (1 mg/kg i.p., 6 h)
Method: as §5, §2, §6

[9] = tested on: LPS-induced liver inflammatory disease model; assay: Liver histology (H&E) and F4/80 immunohistochemistry in LPS-induced liver inflammatory disease model; format: in vivo, mice (C57BL/6J); conditions: mice, compared to LPS alone; for F4/80-positive cells in liver: immunohistochemistry
Method: as §5
First, 4% paraformaldehyde-fixed liver tissues were embedded in paraffin according to standard procedures. 4-micron-thick liver tissue sections were prepared, and immunohistochemical staining was performed according to the manufacturer's instructions. 4-micron-thick liver tissue sections were stained with hematoxylin and eosin (H&E) or subjected to immunohistochemical characterization using an antibody specific for F4/80 (Abcam, Cambridge, MA, UK). All steps were performed at room temperature, and the tissues were washed with tap water after each step. The sections were photographed using a Zeiss microscope (Carl Ziess, Thronwood, NY, USA) equipped with AxioCam software.
As a result of LPS administration, macrophage infiltration into the liver tissue was observed. When Compounds 5f and 4d were administered, the inflammatory response was improved compared to when LPS was administered alone.
In order to characterize the phenotype of macrophages accumulated in LPS-induced inflammation, immunohistochemical studies were performed using antibodies against F4/80 as a marker of mature macrophages (FIG. 4b). When LPS was administered alone to induce an inflammatory response, hepatic macrophage accumulation increased. As a result, there was a marked elevation of the number of F4/80-positive cells.

[10] = Plasma ALT and AST levels in LPS-injected mice; format: in vivo, mice (C57BL/6J); conditions: for plasma alanine aminotransferase (ALT) level / plasma aspartate transaminase (AST) level: compared to LPS alone; for hepatotoxicity in vivo: judged by ALT and AST levels
Method: as §5
The concentrations of plasma alanine aminotransferase (ALT) and aspartate transaminase (AST) were determined using an EnzyChrom™ assay kit (BioAssay Systems, Hayward, CA, USA) according to the manufacturer's recommendations.
Consistent with the altered histological characteristics, plasma alanine aminotransferase (ALT) and aspartate transaminase (AST) levels increased after LPS administration (FIGS. 4c and 4d), and when Compounds 5f and 4d were administered, ALT and AST levels decreased.

[11] = dose-response of normalized IL-6 mRNA expression (FIG. 1), read-out: IC50
[12] = log of IC50, dose-response of normalized IL-6 mRNA expression (FIG. 1), read-out: Log (converted)

Cc1ccc2oc(Nc3ccc(NC(=O)CCCNC(=O)OC(C)(C)C)cc3)nc2c1 [Compound 4d, tert-butyl 4-(4-(5-methylbenzo[d]oxazol-2-ylamino)phenylamino)-4-oxobutylcarbamate]
mRNA Expression (%) (10 μM) IL-6 [1]: 2.4%
IC50 [1, 11]: 0.0604 nM
IC50 [1, 12]: 0.0603 nM
mRNA Expression (%) (10 μM) IL-1β [2]: 0.03%
expression level of pY-STAT3 [3]: significantly down-regulated
expression level of p-IκBα [4]: significantly down-regulated
expression level of p-NF-κB p65 [5]: significantly down-regulated
mRNA level of IL-1β in vivo [6]: significantly reduced
mRNA level of IL-6 in vivo [7]: significantly reduced
mRNA level of TNF-α in vivo [8]: significantly reduced
inflammatory response in liver histology (H&E) [9]: improved
F4/80-positive cells in liver [9]: significant decrease
plasma alanine aminotransferase (ALT) level [10]: decreased
plasma aspartate transaminase (AST) level [10]: decreased
hepatotoxicity in vivo [10]: without hepatotoxicity

Cc1cccc2oc(Nc3ccc(NC(=O)CCCN)cc3)nc12 [Compound 5c, 4-amino-N-(4-(4-methylbenzo[d]oxazol-2-ylamino)phenyl)butanamide]
mRNA Expression (%) (10 μM) IL-6 [1]: 2.08%
IC50 [1, 11]: 1640 nM
IC50 [1, 12]: 1660 nM
mRNA Expression (%) (10 μM) IL-1β [2]: 0.79%

Cc1ccc2oc(Nc3ccc(NC(=O)CCCN)cc3)nc2c1 [Compound 5d, 4-amino-N-(4-(5-methylbenzo[d]oxazol-2-ylamino)phenyl)butanamide]
mRNA Expression (%) (10 μM) IL-6 [1]: 3.39%
IC50 [1, 11]: 32.7 nM
IC50 [1, 12]: 33.1 nM
mRNA Expression (%) (10 μM) IL-1β [2]: 0.03%

CC(C)(C)c1ccc2oc(Nc3ccc(NC(=O)CCCN)cc3)nc2c1 [Compound 5f, 4-amino-N-(4-(5-tert-butylbenzo[d]oxazol-2-ylamino)phenyl)butanamide]
mRNA Expression (%) (10 μM) IL-6 [1]: 3.26%
IC50 [1, 11]: 0.444 nM
IC50 [1, 12]: 0.447 nM
mRNA Expression (%) (10 μM) IL-1β [2]: 2.83%
expression level of pY-STAT3 [3]: significantly down-regulated
expression level of p-IκBα [4]: significantly down-regulated
expression level of p-NF-κB p65 [5]: significantly down-regulated
mRNA level of IL-1β in vivo [6]: significantly reduced
mRNA level of IL-6 in vivo [7]: significantly reduced
mRNA level of TNF-α in vivo [8]: significantly reduced
inflammatory response in liver histology (H&E) [9]: improved
F4/80-positive cells in liver [9]: significant decrease
plasma alanine aminotransferase (ALT) level [10]: decreased
plasma aspartate transaminase (AST) level [10]: decreased
hepatotoxicity in vivo [10]: without hepatotoxicity

COc1cc(NC(=O)CCCN)ccc1Nc1nc2cc(C(C)(C)C)ccc2o1 [Compound 5m, 4-amino-N-(4-(5-tert-butylbenzo[d]oxazol-2-ylamino)-3-methoxyphenyl)butanamide]
mRNA Expression (%) (10 μM) IL-6 [1]: 4.07%
IC50 [1, 11]: 0.199 nM
IC50 [1, 12]: 0.2 nM
mRNA Expression (%) (10 μM) IL-1β [2]: 0.49%

From US20260092043A1, “NOVEL BENZOXAZOLE DERIVATIVE COMPRISING 4-AMINO-BUTANAMIDE AND USE THEREOF” (EWHA UNIVERSITY - INDUSTRY COLLABORATION FOUNDATION, priority 2022, published 2026)
